Test results from patent US10028956B2, “Methods of treating various cancers using an AXL/cMET inhibitor in combination with other agents” (Ignyta, Inc., priority 2013, dated 2018).

Experiments:
[1] = Tolerability / body weight in the xenograft studies; assay type: in vivo; conditions: in all of the above studies
[2] = tested on: 4T1-Luc2 murine mammary carcinoma cells; assay: 4T1-Luc2 systemic dissemination; assay type: in vivo, mice
Procedure: The murine breast cancer cell line 4T1-luciferase tagged cell line generated by stable transfection of the firefly luciferase gene expressed from the SV40 promoter was purchased from Caliper Life Sciences. The cells were grown in DMEM medium supplemented with 10% fetal bovine serum (FBS, Cat^# SH3007003, Hyclone, Logan, Utah). D-Luciferin firefly/potassium salt (Cat. # L-8220) was purchased from Biosynth International, Inc., Itasca, Ill.). Female Balb-c mice (6-8 weeks) were purchased from Charles River laboratories. […] Two days later, the mouse body weights were measured twice a week and the mice were subjected for full body in vivo imaging thrice a week. Treatments were given for a total of 23 days, with 21 days post tumor cell seeding. Bioluminescence image analysis was performed at the end of the study using a Caliper Life Sciences (Xenogen) Spectrum in vivo imaging machine. Each cage of five mice was anesthetized using isofluorane and imaged for a series of time points from 0.5-5 minutes max. Image analysis was performed using Living Image Software (vs. 4.0, 2010) using subjective but equally sized gates or regions of interest (ROIs) overlaid on each animal image. Counts were converted to average radiance or mean photon flux; expressed as photons per second per cm2 of surface area, (p/s/cm2/sr). […]

[3] = tested on: NIH3T3/AXL tumor xenografts; assay: Anti-tumor efficacy in NIH3T3/AXL tumor xenografts; assay type: in vivo, mice; conditions: 0.3, 1 or 10 mg/kg PO qd, all doses tested
Procedure: The engineered NIH3T3/AXL cell line was generated as follows. The human AXL cDNA was subcloned into the pQCXIP vector and the sequences were confirmed by sequencing at Children's Hospital of Philadelphia. PT67 cells (5×10^5) in 4 mL DMEM+10% FBS were seeded in each well of 6-well plates (Cat^#353046, Becton Dickinson, Franklin Lakes, N.J.) and cultured at 37° C. in a humidified incubator with 5% CO2 overnight. The cells were transfected with 2 μg of pQCXIP-AXL with Lipofectamine™ 2000 (Cat#52887, Invitrogen, Carlsbad, Calif.) transfection reagent per the manufacturer's protocol. In brief, the DNA in 500 μL culture media was mixed with 500 μL media containing 20 μL Lipofectamine™ 2000 transfection reagent, and the mixture was incubated at room temperature for 20 minutes. […]
NIH3T3/AXL cells were collected and resuspended in DMEM medium at density of 5×10^7/mL. […] The mice were monitored and the tumor sizes were measured. […] The length (L) and width (W) of each tumor were measured with a vernier caliper and the mouse body weight was determined every two to three days. Tumor volumes were calculated with the formula of 0.5236*L*W*(L+W)/2. […] Plasma and tumor samples were obtained at 2 hours post final dose at each dose level, and the compound levels in plasma and tumor lysates were measured by LC-MS/MS.

[4] = PK in rat; conditions: in vivo
[5] = tested on: EBC-1 Human NSCLC xenografts; assay: Discontinuous and alternate dosing schedules in EBC-1 xenografts; assay type: in vivo, mice; conditions: 10 mg/kg oral
Procedure: After a period of 7 days of continuous dosing, animals were then switched to either a 7 day on/7 day off 10 mg/kg qd dosing regimen, or intermittent twice weekly (q2d) or thrice weekly (q3d) oral dosing at a 10 mg/kg qd dose for a total of 21 days.

[6] = intravenous, 1 mg/kg i.v. and 3 mg/kg p.o.

## COc1cc2nccc(Oc3ccc(NC(=O)c4cn(C(C)C)c(=O)n(-c5ccc(F)cc5)c4=O)cc3F)c2cc1OC [CEP-40783, 3-(4-Fluorophenyl)-1-isopropyl-2,4-dioxo-1,2,3,4-tetrahydropyrimidine-5-carboxylic acid [4-(6,7-dimethoxyquinolin-4-yloxy)-3-fluorophenyl]-amide]
[1]
  tolerability, body weight: well tolerated with no compound-related body weight loss
[2]; 1 mg/kg po qd
  systemic 4T1 mammary tumor dissemination: significant, albeit of lesser magnitude, reduction
[2]; 10 mg/kg and 30 mg/kg po qd
  systemic 4T1 mammary tumor dissemination: highly significant reductions
[3]
  anti-tumor efficacy (tumor volume): complete tumor regressions
[4]; 1 mg/kg i.v. and 3 mg/kg p.o.
  Cmax: 593 ng/mL
[4]; [6]
  Vd: 2.6 L/kg
  clearance: 1.4 mL/min/kg
[4]; iv, 1 mg/kg i.v., read-out: t1/2 i.v. (converted)
  half-life: 21.5 h
[4]; oral, 1 mg/kg i.v. and 3 mg/kg p.o.
  bioavailability: 57%
[4]; po, 3 mg/kg p.o.
  AUC(0-t): 16300 ng·h/mL
[5]; every 2 days (q2d)
  partial responses: 40%
[5]; every 3 days (q3d)
  partial responses: 70%
[5]; q2d dosing group
  complete tumor regressions, % of animals: 20%
[5]; qd, 7 days on/7 days off (qd×7)
  partial responses: 40%
[5]; qd×7 dosing group
  complete tumor regressions, % of animals: 10%
